Reference: patent US6348445B1, “Biologically active peptides with reduced toxicity in animals and a method for preparing same” (priority 1992, dated 2002)
Converted amounts (≈) assume the structure as drawn. Like-named read-outs stand apart in the source and are kept apart here. Where a SMILES comes first, the peptide text is derived from it. [ ]: non-standard residue; d: D form. The star is where a group is joined. Octanoyl = CCCCCCCC(=O)*; Orn = NCCC[C@H](N)C(=O)O

How the values were obtained:
C. albicans = type: cell-based
Outline: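 Peptides serially diluted 1:2 to final 0.25–256 μg/ml; inoculum 1-5×10^5 CFU/ml from mid-log culture in full-strength Mueller Hinton broth. Incubated 16-20 h at 37° C. MIC taken as lowest peptide concentration giving a clear well.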

A. viscosus = test: anaerobic anti-microbial susceptibility test (MIC); type: cell-based; conditions: 24-48 hours
S. mutans = test: anaerobic anti-microbial susceptibility test (MIC); type: cell-based; parameters: unit not given here; conditions: 24-48 hours
S. aureus ATCC 29213 = type: cell-based
C. albicans ATCC 90028 = type: cell-based
Description: (§1) The procedure for the anti-bacterial assay is based upon the guidelines of the National Committee for Clinical Laboratory Standards, Document M7-T2, Volume 8, No. 8, 1988, which document is entirely incorporated herein by reference.
(§2) Stock solutions of peptides, with and without the appropriate substitutions, were prepared at a concentration of 512 μg/ml in sterile deionized distilled water and stored at −70° C.
(§3) The stock peptide solution was diluted in serial dilutions (1:2) down the wells of a microtiter plate so that the final concentrations of peptides in the wells were 0.25, 0.50, 1, 2, 4, 8, 16, 32, 64, 128 and 256 μg/ml. 1-5×10^5 CFUs/ml of either S. aureus ATCC 25923, E. coli ATCC 25922, P. aeruginosa ATCC 27853, or C. albicans, were added to the wells in full strength Mueller Hinton broth (BBL 11443) from a mid-log culture. The inoculum was standardized spectrophotometrically at 600 nm and was verified by colony counts. The plates were incubated for 16-20 hours at 37° C., and the minimal inhibitory concentration (MIC) for each peptide was determined. Minimal inhibitory concentration is defined as the lowest concentration of peptide which produces a clear well in the microtiter plate. The minimal inhibitory concentration of each of the peptides with and/or without the appropriate substitutions is given in Table I below.
(§4) The in vitro anti-microbial activities of the methane sulfonate derivatives were determined according to the methods described in Examples 1 and 2. The activities against ATCC strains of S. aureus, E. coli, P. aeruginosa, and C. albicans, and the hemolysis of red blood cells were compared to the parent compound (Table IV). The activities for Compound 843 (Oct-SEQ ID NO:143) methane sulfonate against clinical strains of P. aeruginosa isolated from cystic fibrosis patients were compared to the parent compound (Table V). The activity for Compound 469 (Oct-SEQ ID NO:27) methane sulfonate against P. gingivalis was compared to the parent compound (Table VI).

[1] = test system: P. aeruginosa strain ATCC 27853; type: cell-based
Outline: (§5)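 Peptides serially diluted 1:2 to final 0.25–256 μg/ml in Mueller Hinton broth, inoculated with 1-5×10^5 CFUs/ml from mid-log culture. Incubated 16-20 hours at 37° C. MIC = lowest peptide concentration giving a clear well.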

red blood cells = test: hemolysis of red blood cells; type: cell-based
Description: as §4

[2] = test system: E. coli ATCC strain 25922; test: Minimal Inhibitory Concentration, microtiter broth dilution; type: cell-based
Outline: as §5

E. coli strain 21915-1 = test: survival of mice inoculated intraperitoneally with live E. coli; type: in vivo; conditions: i.v. at 1 and 5 hours post-inoculation, 10 mice
Description: CD-1 male mice (average body weight, 22.8g) were inoculated with live E. coli strain 21915-1 (2.3×10^5 CFU mouse) by injection intraperitoneally. Oct-(SEQ ID NO: 143)—NH2 then was injected intravenously via the tail vein at 1 and 5 hours post-inoculation. Control mice were inoculated and treated with 0.9% saline. Each different treatment group had 10 mice per group. All control mice died.

[3] = test system: S.aureus strain ATCC 25923; test: Minimal Inhibitory Concentration, microtiter broth dilution; type: cell-based; conditions: Mueller Hinton broth, 16-20 hours at 37° C.
Source text: Table I, which follows, indicates the Minimal Inhibitory Concentration (MIC) in […] of various peptides against S.aureus strain ATCC 25923(S), P. aeruginosa strain ATCC 27853(P), E. coli ATCC strain 25922(E), and C. 4albicans (CA). […] The peptides are unsubstituted at the N-terminal; substituted with an acetyl group at the N-terminal, as indicated by Ac-; substituted with an octanoyl group at the N-terminal, as indicated by Oct-; substituted with spinogosine, as indicated by Sph-; substituted with a succinyl group, as indicated by Suc-; substituted with a hexanoyl group, as indicated by Hex-; substituted with a heptanoyl group, as indicated by Hep-; substituted with a valeryl group, as indicated by Val-; substituted with a myristryl group, as indicated by Myr-; or substituted with an ibuprofyl group, as indicated by Ibu-;
as §1, §2, §3

[4] = maximal tolerated dose, single intravenous administration of Compound 1324; type: in vivo, mice; conditions: mouse, in vivo; single intravenous bolus, CD-1 mice; read-out: MTD i.v. (maximum tolerated dose, non-lethal)
Description: Mice received single intravenous administrations of Compound 1324, the methane sulfonate analogue of Compound 843, and were monitored for survival for at least 4 days. There were no deaths at a dose of less than or equal to 180 mg/kg.
To determine the maximal tolerated dose (MTD) and estimate the lethal dose 50% (LD50) of Compound 1324 sodium when administered intravenously in a single-bolus in mice.
Animals: On arrival and study initiation, three groups Thirty-seven male CD-1 mice (Charles River Lab)had average body weights of 39, 28 and 28 gm, respectively.
Solution Prep: A 120 mg/ml of active Compound 1324 (active moiety corrected for) was made in saline. All concentrations from 5 mg/ml to 80 mg/ml were dilutions of the 120 mg/ml solution with saline. The highest concentration used in the intravenous administration was 20 mg/ml.
Mice were randomly assigned to one of ten groups (4 mice per group, except the highest dose group which only had one mouse). Mice were administered intravenously 10 ml/kg of either 0 (saline), 5, 6, 7, 8, 14, 16, 18, or 20 mg/ml solution for doses of […]. One mouse received 14.1 ml/kg of a 20 mg/ml solution for a dose of 282 mg/kg. Mice were monitored for survival for at least four days post-administration.

[5] = test system: clinical strains of P. aeruginosa isolated from cystic fibrosis patients; test: MIC against clinical isolates of P. aeruginosa; type: cell-based, Pseudomonas aeruginosa; conditions: clinical isolate
Description: as §1, §2, §3, §4

[6] = test system: lipopolysaccharide from E. coli serotype 0111:B4; test: survival of mice after lipopolysaccharide and galactosamine; type: in vivo
Description: Oct-(SEQ ID NO: 143)—NH2 was injected intravenously into male C57BL/6J mice (average body weight 20.1 g) approximately two minutes prior to intraperitoneal injection of a solution of lipopolysaccharide (either 0.1 μg or 0.5 μg/mouse) from E. coli serotype 0111:B4 and galactosamine (8 mg/mouse). […] When these doses were administered prior to the administration of 0.1 μg lipopolysaccharide/mouse, the results were 40%, 90%, 100%, 100%, and 100% survival at five days post-lipopolysaccharide administration, respectively.

SMILES: CCCCCCCC(=O)N[C@@H](CCCCN)C(=O)N[C@H](C(=O)N[C@@H](C)C(=O)NCC(=O)N[C@@H](CCCCN)C(=O)N[C@H](C(=O)N[C@@H](C)C(=O)N[C@@H](CCCCN)C(=O)N[C@H](C(=O)N[C@@H](C)C(=O)NCC(=O)N[C@@H](CCCCN)C(=O)N[C@H](C(=O)N[C@@H](C)C(=O)N[C@@H](CCCCN)C(=O)N[C@H](C(=O)N[C@@H](C)C(=O)NCC(=O)N[C@@H](CCCCN)C(=O)N[C@H](C(=O)N[C@@H](C)C(N)=O)[C@@H](C)CC)[C@@H](C)CC)[C@@H](C)CC)[C@@H](C)CC)[C@@H](C)CC)[C@@H](C)CC [Oct-(SEQ ID NO: 27)-NH2, (Oct-KIAGKIA)3-NH2)] (Octanoyl-KIAGKIAKIAGKIAKIAGKIA-NH2)
- Minimal Inhibitory Concentration CA (C. albicans): 16 µg/mL
- MIC A. viscos (A. viscosus): 16 μl/ml
- MIC S. mutans (S. mutans): 16
- MIC S. aureus ATCC 29213 (S. aureus ATCC 29213; ATCC 29213): 2 µg/mL (≈ 0.914 µM)
- MIC C. albicans ATCC 90028 (C. albicans ATCC 90028; ATCC 90028): 64 µg/mL (≈ 29.2 µM)
- MIC P. aeruginosa ATCC 27853 ([1]; ATCC 27853): 4 to 8 µg/mL
- Minimal Inhibitory Concentration P ([1]; ATCC 27853): 4 µg/mL
- MIC P. gingivalis ATTC 33277 (P. gingivalis): 4 µg/mL (≈ 1.83 µM)
- MIC P. gingivalis (strain) 9-14K-1 (P. gingivalis; anaerobic, 24-48 hours): 4 μl/ml
- MIC P. gingivalis (strain) 381 (P. gingivalis; anaerobic, 24-48 hours): 16 μl/ml
- MIC P. gingivalis (strain) 450 (P. gingivalis; anaerobic, 24-48 hours): 16 μl/ml
- MIC P. gingivalis (strain) A7A1-28 (P. gingivalis; anaerobic, 24-48 hours): 4 μl/ml
- MIC P. gingivalis (strain) FAY-19M-1 (P. gingivalis; anaerobic, 24-48 hours): 4 μl/ml
- % Hemolysis (500 μg/ml) (red blood cells): 100%
- MIC E. coli ATCC 25922 ([2]; ATCC strain 25922): 4 µg/mL (≈ 1.83 µM)
- Minimal Inhibitory Concentration E ([2]; ATCC strain 25922): 2 µg/mL

SMILES: CCCCCCCC(=O)N[C@@H](CCCN)C(=O)N[C@@H](CCCN)C(=O)N[C@@H](CC(C)C)C(=O)N[C@@H](CC(C)C)C(=O)N[C@@H](CCCN)C(=O)N[C@@H](CCCN)C(=O)N[C@@H](CC(C)C)C(=O)N[C@@H](CCCN)C(=O)N[C@@H](CCCN)C(=O)N[C@@H](CC(C)C)C(N)=O [Oct-(SEQ ID NO: 143)-NH2] (Octanoyl-[Orn][Orn]LL[Orn][Orn]L[Orn][Orn]L-NH2)
- survival at six days post-inoculation (E. coli strain 21915-1; 1 mg/kg in toto): 20%
- survival at six days post-inoculation (E. coli strain 21915-1; 5 mg/kg in toto): 40%
- survival at six days post-inoculation (E. coli strain 21915-1; 10 mg/kg in toto): 90%
- survival at six days post-inoculation (E. coli strain 21915-1; 20 mg/kg in toto): 90%
- Minimal Inhibitory Concentration CA (C. albicans; C. albicans, Table I): 16 µg/mL
- MIC S. aureus ATCC 29213 (S. aureus ATCC 29213; Table IV): 16 µg/mL (≈ 12.5 µM)
- MIC C. albicans ATCC 90028 (C. albicans ATCC 90028; Table IV): 64 µg/mL (≈ 50 µM)
- Minimal Inhibitory Concentration S [3]: 16 µg/mL
- Minimal Inhibitory Concentration P ([1]; P. aeruginosa strain ATCC 27853, Table I): 2 µg/mL
- MIC P. aeruginosa ATCC 27853 ([1]; Table IV): 2 µg/mL (≈ 1.56 µM)
- MIC Pseudomonas aeruginosa ATCC 27853 ([1]; Table V): 4 µg/mL (≈ 3.12 µM)
- % Hemolysis (500 μg/ml) (red blood cells): 25%
- MTD [4]: 20 mg/kg
- MIC Pseudomonas aeruginosa LS-31 [5]: 16 µg/mL (≈ 12.5 µM)
- MIC Pseudomonas aeruginosa LS-40 [5]: 4 µg/mL (≈ 3.12 µM)
- MIC Pseudomonas aeruginosa LS-43 [5]: 2 µg/mL (≈ 1.56 µM)
- survival at five days post-lipopolysaccharide administration ([6]; 5 mg/kg i.v. (by order of the list), 0.1 μg lipopolysaccharide/mouse): 90%
- survival at five days post-lipopolysaccharide administration ([6]; 5 mg/kg i.v., 0.5 μg lipopolysaccharide/mouse): 0%
- survival at five days post-lipopolysaccharide administration ([6]; 7.5 mg/kg i.v. (by order of the list), 0.1 μg lipopolysaccharide/mouse): 100%
- survival at five days post-lipopolysaccharide administration ([6]; 7.5 mg/kg i.v., 0.5 μg lipopolysaccharide/mouse): 30%
- survival at five days post-lipopolysaccharide administration ([6]; 10 mg/kg i.v. (by order of the list), 0.1 μg lipopolysaccharide/mouse): 100%
- survival at five days post-lipopolysaccharide administration ([6]; 10 mg/kg i.v., 0.5 μg lipopolysaccharide/mouse): 0%
- survival at five days post-lipopolysaccharide administration ([6]; 12.5 mg/kg i.v. (by order of the list), 0.1 μg lipopolysaccharide/mouse): 100%
- survival at five days post-lipopolysaccharide administration ([6]; 12.5 mg/kg i.v., 0.5 μg lipopolysaccharide/mouse): 50%
- survival at five days post-lipopolysaccharide administration ([6]; 15 mg/kg i.v., 0.5 μg lipopolysaccharide/mouse): 60%
- Minimal Inhibitory Concentration E ([2]; E. coli ATCC strain 25922, Table I): 16 µg/mL
- MIC E. coli ATCC 25922 ([2]; Table IV): 4 µg/mL (≈ 3.12 µM)
